Measurements: PubChem BioAssay (NCI)
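A five-concentration, 48-hour dose response in 96-well plates underlies each endpoint, interpolated linearly between surrounding concentrations. TGI denotes the concentration required for complete inhibition of growth.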

How the values were obtained:
Experiment in all cases: NCI tumour cell line growth inhibition, 48 h
TK-10 renal = system: TK-10 renal
OVCAR-5 ovarian = system: OVCAR-5 ovarian
ACHN renal = system: ACHN renal
SK-MEL-28 melanoma = system: SK-MEL-28 melanoma
OVCAR-3 ovarian = system: OVCAR-3 ovarian
HOP-62 NSCLC = system: HOP-62 NSCLC
DU-145 prostate = system: DU-145 prostate
CCRF-CEM leukemia = system: CCRF-CEM leukemia
MALME-3M melanoma = system: MALME-3M melanoma
BT-549 breast = system: BT-549 breast

Row | Compound | TGI (TK-10 renal) [µM] | TGI (OVCAR-5 ovarian) [µM] | TGI (ACHN renal) [µM] | TGI (SK-MEL-28 melanoma) [µM] | TGI (OVCAR-3 ovarian) [µM] | TGI (HOP-62 NSCLC) [µM] | TGI (DU-145 prostate) [µM] | TGI (CCRF-CEM leukemia) [µM] | TGI (MALME-3M melanoma) [µM] | TGI (BT-549 breast) [µM]
1 | O=P1(N(CCCl)CCCl)NCCCO1 (stereo not given) | > 250 | > 238 | > 250 | > 250 | > 250 | > 250 | > 250 | 213 | > 250 | > 250
2 | CC(=O)NC1C(OCc2ccccc2)OC(CO)C(O)C1OCC(=O)N[C@@H](C)C(=O)N[C@H](CCC(=O)NCCCCNc1c2ccccc2nc2cccc([N+](=O)[O-])c12)C(N)=O (stereo not given in full) | 16.7 | > 27.5 | 11.3 | 23.4 | > 30.4 | > 52.2 | 12.4 | > 100 | 3.68 | 13.1
3 | CCOC(=O)c1c(SCCN2CCCCC2)n(-c2ccccc2)c(=S)n(-c2ccccc2)c1=O | 31.9 | > 100 | 34.7 | 24 | 24.7 | 40.8 | > 55.1 | 11.8 | 30.3 | 31.1
4 | OCC1c2ccccc2-n2nc(-c3ccccc3)c(O)c21 (stereo not given) | 34.1 | > 100 | 30.6 | > 100 | 79.2 | > 100 | > 100 | > 100 | 33.3 | 85.1
5 | C=C1CC(Cn2cc(Br)c(=O)[nH]c2=O)(c2ccc(Br)cc2)OC1=O (stereo not given) | 23 | 22.5 | 9.4 | 16.7 | > 35 | 31 | 15.5 | 5.26 | 4.7 | 8.25
6 | CC(=O)NCC1OC2COC(c3ccccc3)OC2C2N=C(c3ccccc3)OC12 (stereo not given) | > 100 | > 100 | > 100 | > 100 | > 100 | > 100 | > 100 | > 100 | > 100 | > 100
7 | C=C(C)C(=O)O[C@H]1CC2(CO)O[C@@H]2CC/C(COC(C)=O)=C/C2OC(=O)C(=C)[C@@H]21 (stereo not given in full) | > 56.6 | > 100 | > 63.6 | > 64.6 | 79.6 | > 100 | > 100 | 39.3 | 62.2 | 52.1
8 | Cc1cc2nc3c(N)nn(CCN(C)C)c3nc2cc1C | > 100 | > 100 | 95.5 | > 100 | > 100 | > 100 | > 100 | > 100 | > 100 | > 100
9 | CC(=O)Nc1nc(C)c(S(=O)(=O)NC(=O)N2c3ccccc3CCc3ccccc32)s1 | > 100 | > 100 | > 100 | > 100 | > 100 | > 100 | > 100 | > 100 | > 100 | > 100
10 | CCn1c(SCc2nnc(Nc3ccccc3)s2)nc2ccccc2c1=O | 12.3 | 31.1 | 9.16 | 60.8 | 41.2 | 12.5 | 36.5 | > 85.7 | 14 | 26.7
11 | CCOC(=O)c1nc2ccccc2nc1Nc1ccc(F)cc1 | > 100 | > 100 | > 93.6 | > 100 | > 100 | 38.2 | > 100 | > 100 | > 100 | 73.2
12 | CCCC(CC)c1cc(O)c(O)cc1C(CC)CCC (stereo not given) | > 10 | > 10 | > 10 | > 10 | > 10 | > 10 | > 10 | > 10 | > 10 | > 10
13 | COc1ccc(Nc2nc(NNC(=O)Cc3ccccc3)nc(NNC(=O)c3ccncc3)n2)cc1 | > 10 | > 10 | > 10 | > 10 | > 10 | > 10 | > 10 | > 10 | > 10 | > 10
14 | COc1cccc(OC/C(N=Cc2ccncc2)=N/NC(=O)c2ccncc2)c1 | > 100 | > 100 | > 100 | > 100 | > 100 | > 100 | > 100 | > 100 | > 100 | > 100
